Usually Ki stands for a measure of affinity in units of concentration, obtained from inhibition or displacement.

Structures are written as SMILES.

In patent US20060194837A1, “Tetrahydroisoquinoline compounds” (priority 2004, published 2006) one finds Ki data, which are given here for 25 compounds.

For one assay, the target named is T1, human H3 receptor (Homo sapiens, UniProt Q9Y5N1).
T1 construct: expressed in transfected cells
The assay is described as follows: H3 receptor binding (N-[3H]-α-methylhistamine displacement). The following applies: membranes of SK-N-MC cells expressing cloned human H3 receptor, 0.8 nM N-[3H]-α-methylhistamine, 60 min at 25° C.

For another assay, the target named is T2, Rat SERT (Rattus norvegicus, UniProt P31652).
T2 construct: A rat brain without cerebellum (Zivic Laboratories, Inc.—Pittsburgh, Pa.) was homogenized; tissue Zivic Laboratories, Inc; host or cells: rat brain without cerebellum, membranes
T2 sequence (P31652 whole entry): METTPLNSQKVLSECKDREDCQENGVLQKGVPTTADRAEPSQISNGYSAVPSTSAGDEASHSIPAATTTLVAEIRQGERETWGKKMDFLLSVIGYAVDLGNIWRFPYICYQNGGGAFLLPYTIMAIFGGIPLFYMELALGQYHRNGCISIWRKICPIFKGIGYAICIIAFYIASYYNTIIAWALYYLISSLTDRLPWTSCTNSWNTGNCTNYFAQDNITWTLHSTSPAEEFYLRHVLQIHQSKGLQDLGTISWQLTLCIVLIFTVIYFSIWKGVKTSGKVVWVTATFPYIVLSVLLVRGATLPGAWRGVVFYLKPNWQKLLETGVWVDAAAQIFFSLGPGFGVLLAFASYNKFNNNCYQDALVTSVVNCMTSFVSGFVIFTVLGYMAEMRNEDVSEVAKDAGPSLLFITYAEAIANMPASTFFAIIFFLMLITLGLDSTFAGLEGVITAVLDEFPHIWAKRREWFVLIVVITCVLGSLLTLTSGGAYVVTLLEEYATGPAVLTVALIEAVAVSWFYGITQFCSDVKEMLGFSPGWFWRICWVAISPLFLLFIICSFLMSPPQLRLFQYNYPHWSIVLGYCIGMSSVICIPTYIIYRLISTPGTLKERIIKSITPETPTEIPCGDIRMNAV
As to the kind of experiment: Rat brain SERT binding ([3H]-citalopram displacement). The following applies: rat brain membranes without cerebellum, 0.6 nM [3H]-citalopram, 60 min at 25° C.; read-out: Rat SERT Ki. On the procedure: The supernatant was removed and re-centrifuged at 15,000 rpm for 30 min. […] Membranes were incubated with 0.6 nM [^3H]-Citalopram plus/minus test compounds for 60 min at 25° C. and harvested by rapid filtration over GF/C glass fiber filters (pretreated with 0.3% polyethylenimine) followed by four washes with ice-cold buffer.

A further assay addresses T3, human SERT (Homo sapiens, UniProt P31645).
T3 construct: expressed in transfected cells; host or cells: HEK293 membranes
As to the kind of experiment: Human SERT binding (3H-citalopram displacement). The following applies: HEK293 membranes expressing human SERT, rt 1 h. On the procedure: Homogenized HEK293 (Human Embryonic Kidney) membranes expressing the human SERT were incubated with ^3H-citalopram (SERT) at rt for 1 h in 50 mM Tris, 120 mM NaCl, 5 mM KCl (pH 7.4). […] The membranes were washed and the radioactivity was counted as above.

T3 sequence (P31645 whole entry): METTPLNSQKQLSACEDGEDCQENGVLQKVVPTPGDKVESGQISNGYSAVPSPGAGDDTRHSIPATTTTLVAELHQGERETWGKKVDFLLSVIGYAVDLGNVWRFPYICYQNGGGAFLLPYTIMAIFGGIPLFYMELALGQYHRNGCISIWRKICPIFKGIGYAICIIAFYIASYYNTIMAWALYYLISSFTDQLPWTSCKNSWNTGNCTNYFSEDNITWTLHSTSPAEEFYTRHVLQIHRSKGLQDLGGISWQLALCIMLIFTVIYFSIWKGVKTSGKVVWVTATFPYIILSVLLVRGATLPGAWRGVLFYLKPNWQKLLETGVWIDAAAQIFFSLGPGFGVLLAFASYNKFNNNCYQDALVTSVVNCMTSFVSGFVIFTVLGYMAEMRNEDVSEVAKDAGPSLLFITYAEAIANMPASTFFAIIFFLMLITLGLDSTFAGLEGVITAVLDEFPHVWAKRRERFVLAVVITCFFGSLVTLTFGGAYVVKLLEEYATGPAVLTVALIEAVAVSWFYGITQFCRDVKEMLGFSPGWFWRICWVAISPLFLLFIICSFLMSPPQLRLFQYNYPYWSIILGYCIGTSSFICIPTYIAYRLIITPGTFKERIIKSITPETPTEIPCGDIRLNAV
T1 sequence (Q9Y5N1 whole entry): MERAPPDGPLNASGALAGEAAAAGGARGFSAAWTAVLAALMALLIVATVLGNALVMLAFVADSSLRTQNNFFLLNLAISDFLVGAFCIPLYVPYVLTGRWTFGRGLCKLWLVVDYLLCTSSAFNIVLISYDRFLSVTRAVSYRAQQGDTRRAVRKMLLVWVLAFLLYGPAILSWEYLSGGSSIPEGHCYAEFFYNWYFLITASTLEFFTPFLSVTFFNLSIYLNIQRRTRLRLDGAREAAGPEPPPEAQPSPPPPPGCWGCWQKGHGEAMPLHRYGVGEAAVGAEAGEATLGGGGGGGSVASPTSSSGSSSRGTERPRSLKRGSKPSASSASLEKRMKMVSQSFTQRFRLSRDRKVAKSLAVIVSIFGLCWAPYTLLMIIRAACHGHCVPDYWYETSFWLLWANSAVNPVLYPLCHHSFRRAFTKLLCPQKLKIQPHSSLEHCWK

With `CN1Cc2cc(OCCCN3CCC(F)CC3)ccc2C(c2ccc(Sc3ncc[nH]3)nc2)C1` (stereo not drawn) [Example 195, 7-[3-(4-Fluoro-piperidin-1-yl)-propoxy]-4-[6-(1H-imidazol-2-ylsulfanyl)-pyridin-3-yl]-2-methyl-1,2,3,4-tetrahydro-isoquinoline], the results for the Ki on human H3 receptor, at Rat SERT and on human SERT were 3 nM, 8 nM and 34 nM, respectively.
On the same counts, the results for `COc1ccc(C2CN(C)Cc3cc(C#CCCN4CCSCC4)ccc32)cc1` (stereo not drawn) [Example 277, 4-(4-Methoxy-phenyl)-2-methyl-7-(4-thiomorpholin-4-yl-but-1-ynyl)-1,2,3,4-tetrahydro-isoquinoline] are 45 nM, 37 nM and 13 nM.
Turning to `COc1cccc(C2CN(C)Cc3cc(OCC4CCN(C(C)C)CC4)ccc32)c1` (stereo not drawn) [Example 91, 7-(1-Isopropyl-piperidin-4-ylmethoxy)-4-(3-methoxy-phenyl)-2-methyl-1,2,3,4-tetrahydro-isoquinoline], the inhibition constant Ki was 1 nM at human H3 receptor, 11 nM at Rat SERT and 11 nM on human SERT.
For the compound `COc1ccc(C2CN(C)Cc3cc(OCCCN4CCN(c5ccncc5)CC4)ccc32)cc1` (stereo not drawn) [Example 204, 4-(4-Methoxy-phenyl)-2-methyl-7-[3-(4-pyridin-4-yl-piperazin-1-yl)-propoxy]-1,2,3,4-tetrahydro-isoquinoline], the inhibitory constant (Ki) on human H3 receptor was 2 nM; at Rat SERT it was 10 nM; on human SERT it was 5 nM.
On the same counts, the results for `COc1ccc(C2CN(C)Cc3cc(OCC4CCN(C)CC4)ccc32)cc1` (stereo not drawn) [Example 84, 4-(4-Methoxy-phenyl)-2-methyl-7-(1-methyl-piperidin-4-ylmethoxy)-1,2,3,4-tetrahydro-isoquinoline] are 3 nM, 7 nM and 7 nM.
With `CN1Cc2cc(OCCCN3CCC(F)CC3)ccc2C(c2ccccc2)C1` (stereo not drawn) [Example 124, 7-[3-(4-Fluoro-piperidin-1-yl)-propoxy]-2-methyl-4-phenyl-1,2,3,4-tetrahydro-isoquinoline], the values for the Ki at human H3 receptor, at Rat SERT and at human SERT were 3 nM, 13 nM and 56 nM, respectively.
As to `CCOc1ccc(C2CN(C)Cc3cc(OCCCN4CCC(F)CC4)ccc32)cc1` (stereo not drawn) [Example 145, 4-(4-Ethoxy-phenyl)-7-[3-(4-fluoro-piperidin-1-yl)-propoxy]-2-methyl-1,2,3,4-tetrahydro-isoquinoline], the Ki is 5 nM on human H3 receptor, 3 nM at Rat SERT and 5 nM on human SERT.
For `Cc1ccc(C2CN(C)Cc3cc(OCCCN4CCC(F)CC4)ccc32)cc1` (stereo not drawn) [Example 126, 7-[3-(4-Fluoro-piperidin-1-yl)-propoxy]-2-methyl-4-p-tolyl-1,2,3,4-tetrahydro-isoquinoline], the values for the Ki at human H3 receptor, on Rat SERT and on human SERT were 8 nM, 3 nM and 15 nM, respectively.
As for `COc1ccc(C2CN(C)Cc3cc(OC4CCNCC4)ccc32)cc1` (stereo not drawn) [Example 148, 4-(4-Methoxy-phenyl)-2-methyl-7-(piperidin-4-yloxy)-1,2,3,4-tetrahydro-isoquinoline], the Ki on human H3 receptor stood at 262 nM; on Rat SERT it was 3 nM; on human SERT, 5 nM.
On the same counts, the results for `CCN1CCN(CCCOc2ccc3c(c2)CN(C)CC3c2ccc(OC)cc2)CC1` (stereo not drawn) [Example 198, 7-[3-(4-Ethyl-piperazin-1-yl)-propoxy]-4-(4-methoxy-phenyl)-2-methyl-1,2,3,4-tetrahydro-isoquinoline] are 10 nM, 2 nM and 2 nM.
Consider `COc1ccc(C2CN(C)Cc3cc(OCCCN4CCCC(C(F)(F)F)C4)ccc32)cc1` (stereo not drawn) [Example 25, 4-(4-Methoxy-phenyl)-2-methyl-7-[3-(3-trifluoromethyl-piperidin-1-yl)-propoxy]-1,2,3,4-tetrahydro-isoquinoline], for which the Ki on human H3 receptor was found to be 7 nM; at Rat SERT it was 10 nM; on human SERT, 6 nM.
For `COc1ccc(C2CN(C)Cc3cc(C#CCCN4CCC(F)(F)CC4)ccc32)cc1` (stereo not drawn) [Example 274, 7-[4-(4,4-Difluoro-piperidin-1-yl)-but-1-ynyl]-4-(4-methoxy-phenyl)-2-methyl-1,2,3,4-tetrahydro-isoquinoline], the results for the inhibition constant (Ki) on human H3 receptor, on Rat SERT and on human SERT were 65 nM, 14 nM and 27 nM, respectively.
Take `CSc1ccc(C2CN(C)Cc3cc(OCC4CCN(C(C)C)CC4)ccc32)cc1` (stereo not drawn) [Example 103, 7-(1-Isopropyl-piperidin-4-ylmethoxy)-2-methyl-4-(4-methylsulfanyl-phenyl)-1,2,3,4-tetrahydro-isoquinoline]: the values for the Ki at human H3 receptor, on Rat SERT and at human SERT were 7 nM, 8 nM and 3 nM, respectively.
On the same counts, the results for `COc1ccc(C2CN(C)Cc3cc(OCC(O)CN4CCCCC4)ccc32)cc1` (stereo not drawn) [Example 42, 1-[4-(4-Methoxy-phenyl)-2-methyl-1,2,3,4-tetrahydro-isoquinolin-7-yloxy]-3-piperidin-1-yl-propan-2-ol] are 3 nM, 3 nM and 8 nM.
Take `COc1ccc(C2CN(C)Cc3cc(C#CCCN4CCOCC4)ccc32)cc1` (stereo not drawn) [Example 276, 4-(4-Methoxy-phenyl)-2-methyl-7-(4-morpholin-4-yl-but-1-ynyl)-1,2,3,4-tetrahydro-isoquinoline]: the Ki on human H3 receptor came out at 86 nM; at Rat SERT, 18 nM; on human SERT it was 9 nM.
On the same counts, the results for `COc1ccc(C2CN(C)Cc3cc(OCCCN4CCC(C#N)CC4)ccc32)cc1` (single isomer, unassigned) [Example 37A, 1-{3-[4-(4-Methoxy-phenyl)-2-methyl-1,2,3,4-tetrahydro-isoquinolin-7-yloxy]-propyl}-piperidine-4-carbonitrile] are 89 nM, 9 nM and 13 nM.
As to `COc1ccc(C2CN(C)Cc3cc(OC4CCN(C(C)C)CC4)ccc32)cc1` (stereo not drawn) [Example 117, 7-(1-Isopropyl-piperidin-4-yloxy)-4-(4-methoxy-phenyl)-2-methyl-1,2,3,4-tetrahydro-isoquinoline], the Ki was found to be 1 nM at human H3 receptor, 9 nM at Rat SERT and 10 nM on human SERT.
In the case of `COc1ccc(C2CN(C)Cc3cc(OCCCN4CCN(C(=O)c5ccncc5)CC4)ccc32)cc1` (stereo not drawn) [Example 4, (4-{3-[4-(4-Methoxy-phenyl)-2-methyl-1,2,3,4-tetrahydro-isoquinolin-7-yloxy]-propyl}-piperazin-1-yl)-pyridin-4-yl-methanone], the Ki at human H3 receptor was determined as 4000 nM; on Rat SERT, 33 nM; on human SERT, 21 nM.
In the case of `CN1Cc2cc(OCCCN3CCCCC3)ccc2C(c2ccc(OC(F)(F)F)cc2)C1` (stereo not drawn) [Example 222, 2-Methyl-7-(3-piperidin-1-yl-propoxy)-4-(4-trifluoromethoxy-phenyl)-1,2,3,4-tetrahydro-isoquinoline], the values for the Ki on human H3 receptor, at Rat SERT and on human SERT were 30 nM, 30 nM and 18 nM, respectively.
With `CN1Cc2cc(OCCCN3CCC(F)CC3)ccc2C(c2cccc(F)c2)C1` (stereo not drawn) [Example 48, 4-(3-Fluoro-phenyl)-7-[3-(4-fluoro-piperidin-1-yl)-propoxy]-2-methyl-1,2,3,4-tetrahydro-isoquinoline], the Ki came out at 6 nM on human H3 receptor, 31 nM on Rat SERT and 118 nM at human SERT.
Regarding `CSc1ccc(C2CN(C)Cc3cc(OCCCN4CCOC[C@@H]4C)ccc32)cc1` (stereo partly drawn) [Example 215, 2-Methyl-7-[3-(3S-methyl-morpholin-4-yl)-propoxy]-4-(4-methylsulfanyl-phenyl)-1,2,3,4-tetrahydro-isoquinoline], the Ki at human H3 receptor worked out at 5 nM; at Rat SERT, 1 nM; at human SERT, 5 nM.
Turning to `COc1ccc(C2CN(C)Cc3cc(CCCCN4CCSCC4)ccc32)cc1` (stereo not drawn) [Example 282, 4-(4-Methoxy-phenyl)-2-methyl-7-(4-thiomorpholin-4-yl-butyl)-1,2,3,4-tetrahydro-isoquinoline], the Ki on human H3 receptor came out at 25 nM; on Rat SERT, 6 nM; at human SERT, 17 nM.
Turning to `CSc1ccc(C2CN(C)Cc3cc(OCCCN4CCC(F)(F)CC4)ccc32)cc1` (stereo not drawn) [Example 216, 7-[3-(4,4-Difluoro-piperidin-1-yl)-propoxy]-2-methyl-4-(4-methylsulfanyl-phenyl)-1,2,3,4-tetrahydro-isoquinoline], the Ki was determined as 22 nM on human H3 receptor, 4 nM at Rat SERT and 8 nM at human SERT.
Take `CCN1Cc2cc(OCCCN3CCCCC3)ccc2C(c2ccc(OC)cc2)C1` (stereo not drawn) [Example 66, 2-Ethyl-4-(4-methoxy-phenyl)-7-(3-piperidin-1-yl-propoxy)-1,2,3,4-tetrahydro-isoquinoline]: the values for the Ki on human H3 receptor, at Rat SERT and at human SERT were 1 nM, 5 nM and 4 nM, respectively.
As to `COc1ccc(C2CN(C)Cc3cc(OCCCN4CCCCC4CO)ccc32)cc1` (stereo not drawn) [Example 24, (1-{3-[4-(4-Methoxy-phenyl)-2-methyl-1,2,3,4-tetrahydro-isoquinolin-7-yloxy]-propyl}-piperidin-2-yl)-methanol], the Ki at human H3 receptor was 2 nM; at Rat SERT, 2 nM; at human SERT it was 3 nM.
